In patent US20250127857A1, “A COMPOSITION COMPRISING IL-36 AND/OR IL-18 FOR USE IN TREATING OCULAR DISORDERS” (THE PROVOST, FELLOWS, FOUNDATION SCHOLARS, & THE OTHER …, priority 2021, published 2025):

B1: IL-1α: human IL-1α (R&D systems) (protein, UniProt P01583 113-271, looked up)
Interleukin-1 alpha: SAPFSFLSNVKYNFMRIIKYEFILNDALNQSIIRANDQYLTAAALHNLDEAVKFDMGAYKSSKDDAKITVILRISKTQLYVTAQDEDQPVLLKEMPEIPKTITGSETNLLFFWETHGTKNYFTSVAHPNLFIATKQDYWVCLAGGPPSITDFQILENQA

How the values were obtained:
[1] = test system: cldn5, tricellulin, ZO-1 and VE-cadherin mRNA in HRMEC; test: Real-time qPCR of junction components; type: cell-based, human; details: 100 ng/ml IL-36β or 10 μM RepSox, 24 hours
Source text: […]

[2] = test system: HRMEC; test: Wound healing (scratch) assay in HRMEC, IL-18; type: cell-based, human; details: IL-18, VEGF, bFGF each 50 ng/ml, closure expressed as % closure
Description: FIG. 16 illustrates HRMEC migration in response to IL-18 and IL-1α stimulation, wherein confluent HRMEC monolayers were scratched with a pipette tip and treated with IL-18 (50 ng/ml) or IL-1α (10 ng/ml) along with bFGF (50 ng/ml) or VEGF (50 ng/ml) as positive controls, wherein images were taken immediately following scratch (0 hrs) and at 4, 8 and 24 hours following scratch, wherein images were analysed using ImageJ imaging software, wherein data are presented as mean±SEM of 6 separate experiments in triplicate, wherein data were analysed using 2way ANOVA with Dunnett's multiple comparison test. (*p<0.05, *p<0.01, ****p<0.0001);
Cells were seeded on to a 12-well plate and grown until they reached confluency. 24 hours prior to the scratch, culture medium was replaced with 0.5% Serum media without supplements for 24 hours to induce cell quiescence. Cell monolayers were scratched once down the centre of the well using a p200 pipette tip and washed once with warmed DPBS to remove debris then replaced with 0.5% serum supplemented media with experimental treatments. Images were acquired using an Olympus IX51 inverted microscope with Cell^A imaging software (Olympus). Images were taken at baseline immediately following scratch and at suitable timepoints for up to 24 (HRMECs) or 48 hours (BMVECs). The area within the scratch was quantified using ImageJ software, and each timepoint was normalised to its baseline and expressed as % closure.

[3] = test system: HRMEC; test: MTS assay of HRMEC proliferation with VEGF and IL-18; type: cell-based, human; details: VEGF alone
Description: FIG. 17 illustrates HRMEC proliferation in response to VEGF is enhanced with IL-18 pre-treatment, wherein HRMECs were treated with increasing concentrations of VEGF alone or with a 24 hour pre-treatment of IL-18 at 10, 100 or 1000 ng/ml, wherein increasing VEGF induced an increase in cell proliferation which was enhanced following IL-18 treatment;
Cell viability was assessed using the CellTiter 96 AQueous One Solution cell proliferation MTS assay (Promega) as per the manufacturer's instructions. Cell monolayers were treated for times indicated where treatment supplemented media was then removed and incubated with 20 μl of CellTiter 96 AQueous One Solution in 100 μl of complete growth medium in a humidified incubator at 37° C. with 5% CO2for 1-4 hours. The absorbance of each well was measured at 490 nm using a SynergyMX plate reader (Biotek, Gen5™).

[4] = test system: occludin; test: Occludin expression in HRMEC (qPCR and immunoblotting); type: cell-based, human; details: for expression of tight junction protein occludin: single cytokine
Description: FIG. 18 illustrates IL-18 drives expression of tight junction protein occludin and inhibits VEGF depletion of occluding, wherein HRMECS were treated with either VEGF, IL-18 or IL-1α for the timepoints indicated (top panel) and cells were prepared for RNA isolation and qPCR with expression of occluding measured, wherein HRMECs were treated with VEGF, IL-18 or IL-1 or combinations of these cytokines and cells were prepared for immunoblotting for expression of occludin and b-actin (lower panels);
Following transfer, membranes were blocked by incubating in 5% non-fat dried milk (Marvel) in TBS-T for 1 hour at room temperature whilst shaking. Membranes were incubated with primary antibody diluted in either 5% Marvel or BSA, depending on antibody specification, overnight at 4° C. with gentle agitation. Primary antibody was recovered and stored at −20. Membranes were washed three times in TBS-T for 5 minutes and membranes were incubated with secondary antibody, diluted in 5% Marvel, for 1 hour at room temperature. Secondary antibody was removed and discarded, and excess secondary was removed from the membranes by three 5-minute washes in TBS-T.
All RT-PCR assays were carried out using the SensiFAST SYBR Hi-ROX Kit (Bioline) with primers designed using Primer-BLAST (NCBI). For each target a master-mix comprising of 4 μl SYBR Green mix, 0.5 μl of Forward primer (4 μM) and 0.5 μl of Reverse primer (4 μM) along and 3 μl of RNAse free H2O was prepared and mixed thoroughly by vortexing. 8 μl of master-mix was added to each well of a 0.1 mL MicroAMP® Fast 96-well Reaction Plate (Applied Biosystems), along with 2 μl of cDNA and sealed using Optical adhesive film (Applied Biosystems) and spun down for 30 seconds in a centrifuge fitted with microplate rotor (Eppendorf) before running. Plate were run using a QuantStudio 3 real-time PCR System (Applied Biosystems) or the StepOnePlus Real-Time PCR System (Applied Biosystems), with run conditions set as: 50° C. for 2 mins, 95° C. for 10 minutes, 40 cycles of 95° C. for 15 seconds then 60° C. for 1 minute. To assess the quality of Primers a melt-curve stage was added: 95° C. for 1 second, 60° C. for 20 seconds, 95° C. for 1 second. Data were analysed using the QuantStudio™ Design & Analysis software (Applied Biosystems) and using the comparative Ct (ΔΔCt) method where test samples were normalised to endogenous control (β-Actin) followed by normalising the ΔCt of test samples to sample control (untreated sample), then calculating 2^−ΔΔCt to find the relative fold change of test samples over sample control.

[5] = test system: IL-36R; details: HRMEC, VEGF treatment over timepoints

Molecule	ZO-1 transcript (qPCR) [1]	mean difference in wound closure vs no treatment (xdiff) ([2]; 8 hours post scratch)	mean difference in wound closure vs no treatment (xdiff) ([2]; 24 hours post scratch)	HRMEC proliferation with increasing doses of VEGF [3]	expression of tight junction protein occludin [4]	IL-36R expression [5]	rescue of VEGF mediated occludin inhibition ([4]; combination with VEGF, immunoblotting)
Cc1cccc(-c2[nH]ncc2-c2ccc3ncccc3n2)n1 [RepSox]	appeared unaffected						
FGF: bFGF (50 ng/ml) used as positive control in scratch assay		−4.366	−28.4				
VEGF		−9.35	−12.25	increase in proliferation up to 5 ng/ml	reduced expression of occludin	reduces IL-36R expression	
B1					reduced expression of occludin		does not rescue VEGF mediated occludin inhibition
